What was measured:
Rattus norvegicus [1] = assay: In vivo inhibition of PGE2 in albino rat plasma at 50 mg/kg, po administered 1 hr prior to carrageenan challenge measured after 4 hrs by EIA relative to control; type: functional
[2] = Acute toxicity in rat; type: organism-based; details: in vivo
Rattus norvegicus [3] = assay: In vivo inhibition of PGE2 in albino rat plasma at 25 mg/kg, po administered 1 hr prior to carrageenan challenge measured after 4 hrs by EIA relative to control; type: functional
Rattus norvegicus [4] = assay: Antiinflammatory activity in albino rat assessed as protection against carrageenan-induced paw edema at 50 mg/kg, po administered 1 hr prior to carrageenan challenge measured after 4 hrs relative to control; type: functional
Rattus norvegicus [5] = assay: Antiinflammatory activity in albino rat assessed as protection against carrageenan-induced paw edema at 25 mg/kg, po administered 1 hr prior to carrageenan challenge measured after 4 hrs relative to control; type: functional

| Structure (SMILES) | inhibition in vivo at 50 mg/kg (Rattus norvegicus [1]) | LD50 [2] | inhibition in vivo at 25 mg/kg (Rattus norvegicus [3]) | Activity (Rattus norvegicus [4]) | Activity (Rattus norvegicus [5]) |
| --- | --- | --- | --- | --- | --- |
| COc1ccc(C2CC(c3ccc(NC(=O)c4cc(Cl)ccc4OC)cc3)=NN2C)cc1 (centres undefined) | 81.8% | 2390 mg/kg | 69.6% | 93.15% | 88.1% |
| COc1ccc(Cl)cc1C(=O)Nc1ccc(C2=NN(c3ccccc3)C(c3ccccc3[N+](=O)[O-])C2)cc1 (centres undefined) | 84.3% | 2390 mg/kg | 73.3% | 88.4% | 80.18% |
| COc1ccc(C2CC(c3ccc(NC(=O)c4cc(Cl)ccc4OC)cc3)=NN2)cc1 (centres undefined) | 83% | – | 70.5% | 89% | 82.55% |
| COc1ccc(/C=C/C(=O)c2ccc(NC(=O)c3cc(Cl)ccc3OC)cc2)cc1 | 79.2% | 2230 mg/kg | 68.1% | 93.1% | 79% |
| C[C@]12C=CC(=O)C=C1CC[C@@H]1[C@@H]2[C@@H](O)C[C@@]2(C)[C@H]1CC[C@]2(O)C(=O)CO [PREDNISOLONE] | 92.1% | – | 78.1% | 92.1% | 80.4% |
| COc1ccc(C2CC(c3ccc(NC(=O)c4cc(Cl)ccc4OC)cc3)=NN2c2ccccc2)cc1 (centres undefined) | 90.2% | 2390 mg/kg | 82.3% | 98% | 94.82% |
| COc1ccc(C2CC(c3ccc(NC(=O)c4cc(Cl)ccc4OC)cc3)=NN2C(C)=O)cc1 (centres undefined) | 88.4% | – | 79.4% | 90.2% | 86% |
| COc1ccc(Cl)cc1C(=O)Nc1ccc(C2=NN(C(C)=O)C(c3ccccc3[N+](=O)[O-])C2)cc1 (centres undefined) | 87.2% | – | 77.2% | 96.15% | 92.16% |
| COc1ccc(Cl)cc1C(=O)Nc1ccc(C2=NNC(c3ccc([N+](=O)[O-])cc3)C2)cc1 (centres undefined) | 86.3% | – | 76.3% | 95.3% | 91.25% |
| COc1ccc(Cl)cc1C(=O)Nc1ccc(C2=NNC(c3ccccc3[N+](=O)[O-])C2)cc1 (centres undefined) | 84.5% | – | 72.3% | 90.89% | 88.3% |
| COc1ccc(Cl)cc1C(=O)Nc1ccc(C(=O)/C=C/c2ccc([N+](=O)[O-])cc2)cc1 | – | 1830 mg/kg | – | – | – |
| COc1ccc(Cl)cc1C(=O)Nc1ccc(C2=NN(c3ccccc3)C(c3ccc([N+](=O)[O-])cc3)C2)cc1 (centres undefined) | 85.3% | 2380 mg/kg | 75.3% | 94.1% | 90.85% |
| COc1ccc(Cl)cc1C(=O)Nc1ccc(C2=NN(C)C(c3ccc([N+](=O)[O-])cc3)C2)cc1 (centres undefined) | 83.2% | 2540 mg/kg | 71.3% | 97.4% | 93% |
| COc1ccc(Cl)cc1C(=O)Nc1ccc(C2=NN(CN3CCOCC3)C(c3ccc([N+](=O)[O-])cc3)C2)cc1 (centres undefined) | 90.1% | – | 80.1% | 97.9% | 94.13% |
| COc1ccc(Cl)cc1C(=O)Nc1ccc(C2=NN(C)C(c3ccccc3[N+](=O)[O-])C2)cc1 (centres undefined) | 91.2% | 2350 mg/kg | 83.8% | 99.5% | 96.45% |
| COc1ccc(Cl)cc1C(=O)Nc1ccc(C(=O)/C=C/c2ccccc2[N+](=O)[O-])cc1 | 80.4% | 2400 mg/kg | 69.1% | 85.85% | 81.8% |
